From the supplement of paper PMC11061612

Assays:
[1] = system: HGC-27 (Gastric Carcinoma); experiment: Bliss excess, mean over the matrix (fraction); higher = more synergy
In short: (§1)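 Cell lines in DMEM/F12 or RPMI with 10% FBS were plated in 1536-well plates, held 24 hours at 37°C, 5% CO2, then given two-drug dose matrices for 72 hours (DMSO typically 0.2%). Viability was read by CellTiter-Glo 2.0 luminescence and scaled as inhibition from 0 (vehicle wells) to 1 (blank wells). Combination Emax is the second-highest inhibition in the matrix; Bliss excess is observed combination effect minus expected EA + EB − EA·EB, EA and EB being single-agent effects.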

[2] = system: HOP-62 (Lung Adenocarcinoma); experiment: as above
In short: as §1

[3] = system: HSC-4 (Oral Cavity Carcinoma); experiment: as above
In short: as §1

[4] = system: NCI-H1915 (Non-Small Cell Lung Carcinoma); experiment: as above
In short: as §1

[5] = system: NUGC-3 (Gastric Carcinoma); experiment: as above
In short: as §1

[6] = system: OSC-20 (Oral Cavity Carcinoma); experiment: as above
In short: as §1

[7] = system: TE-1 (Esophageal Squamous Cell Carcinoma); experiment: as above
In short: as §1

[8] = system: C-4-I (Cervical Carcinoma); experiment: combination Emax (second highest fraction inhibited in the dose matrix, 72 h); higher = more inhibition; extreme values may be limits of the assay
In short: as §1

[9] = system: HOP-62 (Lung Adenocarcinoma); experiment: as above
In short: as §1

[10] = system: HSC-4 (Oral Cavity Carcinoma); experiment: as above
In short: as §1

[11] = system: JVM-3 (B-Cell Non-Hodgkin's Lymphoma); experiment: as above
In short: as §1

[12] = system: KMOE-2 (Acute Myeloid Leukemia); experiment: as above
In short: as §1

[13] = system: NCI-H1915 (Non-Small Cell Lung Carcinoma); experiment: as above
In short: as §1

[14] = system: NEC8 (Other Solid Carcinomas); experiment: as above
In short: as §1

[15] = system: NUGC-3 (Gastric Carcinoma); experiment: as above
In short: as §1

[16] = system: OE19 (Esophageal Adenocarcinoma); experiment: as above
In short: as §1

[17] = system: OSC-20 (Oral Cavity Carcinoma); experiment: as above
In short: as §1

PWR-1E (Non-Cancerous) = experiment: as above
In short: as §1

[18] = system: SCC-15 (Oral Cavity Carcinoma); experiment: as above
In short: as §1

[19] = system: TE-1 (Esophageal Squamous Cell Carcinoma); experiment: as above
In short: as §1
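Throughout, for Bliss excess, mean over the matrix: after 72 h of two-drug dosing.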

Row | Compound | Bliss excess [1] | Bliss excess [2] | Bliss excess [3] | Bliss excess [4] | Bliss excess [5] | Bliss excess [6] | Bliss excess [7] | combination Emax [8] | combination Emax [9] | combination Emax [10] | combination Emax [11] | combination Emax [12] | combination Emax [13] | combination Emax [14] | combination Emax [15] | combination Emax [16] | combination Emax [17] | combination Emax (PWR-1E (Non-Cancerous)) | combination Emax [18] | combination Emax [19]
1 | CN(CCO)CC[C@H](CSc1ccccc1)Nc1ccc(S(=O)(=O)NC(=O)c2ccc(N3CCC([C@@H](O)c4ccccc4-c4ccc(Cl)cc4)CC3)cc2)cc1S(=O)(=O)C(F)(F)F [AZD4320] + C=CCn1c(=O)c2cnc(Nc3ccc(N4CCN(C)CC4)cc3)nc2n1-c1cccc(C(C)(C)O)n1 [AZD1775] (first compound max 1 µM, partner max 1 µM) | -0.018 | -0.0356 | 0.023 | 0.0125 | -0.0346 | -0.0933 | -0.0034 | 0.946 | 0.458 | 0.585 | 1 | 1 | 0.853 | 0.414 | 0.764 | 0.33 | 0.119 | 0.338 | 0.551 | 0.824
2 | CN(CCO)CC[C@H](CSc1ccccc1)Nc1ccc(S(=O)(=O)NC(=O)c2ccc(N3CCC([C@@H](O)c4ccccc4-c4ccc(Cl)cc4)CC3)cc2)cc1S(=O)(=O)C(F)(F)F [AZD4320] + C[C@@H](Nc1cc(F)cc(F)c1)c1cc(C(=O)N(C)C)cc2c(=O)cc(N3CCOCC3)oc12 [AZD8186] (first compound max 1 µM, 7x7, partner max 3 µM) | -0.0272 | -0.0226 | -0.12 | 0.0202 | -0.0383 | 0.0146 | -0.0549 | 0.611 | 0.602 | 0.852 | 1 | 0.887 | 0.455 | 0.341 | 0.777 | 0.489 | 0.36 | 0.592 | 0.447 | 0.532
3 | Cc1cc2ncnn2cc1Nc1ncc2c(n1)n(C1CCOCC1)c(=O)n2C [AZD7648] + C[C@@H]1COCCN1C2=NC(=NC(=C2)C3(CC3)[S@](=N)(=O)C)C4=C5C=CNC5=NC=C4 [AZD6738] (first compound max 10 µM, 7x7, partner max 10 µM) | -0.0265 | -0.0009 | -0.0165 | -0.0216 | -0.0657 | 0.0065 | -0.0086 | 0.929 | 0.435 | 0.584 | 0.809 | 0.586 | 0.364 | 0.7 | 0.665 | 0.813 | 0.41 | 0.769 | 0.565 | 0.414
4 | COc1cc2c(cc1OCCCCCOc1cc3c(cc1OC)C(=O)N1C=C(C)C[C@H]1C=N3)N=C[C@@H]1CC(C)=CN1C2=O [SG3199] + O=C(c1cc(Cc2n[nH]c(=O)c3ccccc23)ccc1F)N1CCN(C(=O)C2CC2)CC1 [Olaparib] (first compound max 0.001 µM, 7x7, partner max 10 µM) | 0.0358 | -0.0276 | -0.046 | -0.0248 | -0.0332 | -0.0319 | -0.0286 | 0.184 | 0.118 | 0.212 | 0.335 | 0.0783 | 0.353 | 0.201 | 0.124 | 0.216 | 0.145 | 0.0981 | 0.0778 | 0.194
